Experimental data as given in patent US20140066498A1, “TRITERPENOID DERIVATIVES, BENZENOID DERIVATIVES, AND PHARMACEUTICAL COMPOSITIONS CONTAINING THE SAME” (National Cheng Kung University, priority 2010, published 2014).
In brackets after ≈: the same amount, converted by molar mass.

Key:
KB (human cancer cell) = experiment: Cytotoxicity assay against KB cells in vitro; format: cell-based; conditions: NA@20 given for inactive
NADPH oxidase (NOX) [1] = molecular target: NADPH oxidase (NOX) (Mus musculus, UniProt Q61093); format: biochemical, murine; conditions: ROS production triggered with NADPH (200 μM), 1-50 μM test drug, BV2 cell lysate; mean ± S.E.M., 3-6 experiments; read-out: IC50 (μM) in NOX activity from BV2 cell lysate
[2] = molecular target: T1, nitric oxide synthase (NOS) (Mus musculus, UniProt P29477); experiment: NOS activity: LPS-induced NO production in murine microglial cells (BV2); conditions: read-out: IC50 (μM) in NOS; LPS-induced NO production in BV2 cells, 1-50 μM test drug; mean ± S.E.M.
T1 sequence (P29477 1-1144): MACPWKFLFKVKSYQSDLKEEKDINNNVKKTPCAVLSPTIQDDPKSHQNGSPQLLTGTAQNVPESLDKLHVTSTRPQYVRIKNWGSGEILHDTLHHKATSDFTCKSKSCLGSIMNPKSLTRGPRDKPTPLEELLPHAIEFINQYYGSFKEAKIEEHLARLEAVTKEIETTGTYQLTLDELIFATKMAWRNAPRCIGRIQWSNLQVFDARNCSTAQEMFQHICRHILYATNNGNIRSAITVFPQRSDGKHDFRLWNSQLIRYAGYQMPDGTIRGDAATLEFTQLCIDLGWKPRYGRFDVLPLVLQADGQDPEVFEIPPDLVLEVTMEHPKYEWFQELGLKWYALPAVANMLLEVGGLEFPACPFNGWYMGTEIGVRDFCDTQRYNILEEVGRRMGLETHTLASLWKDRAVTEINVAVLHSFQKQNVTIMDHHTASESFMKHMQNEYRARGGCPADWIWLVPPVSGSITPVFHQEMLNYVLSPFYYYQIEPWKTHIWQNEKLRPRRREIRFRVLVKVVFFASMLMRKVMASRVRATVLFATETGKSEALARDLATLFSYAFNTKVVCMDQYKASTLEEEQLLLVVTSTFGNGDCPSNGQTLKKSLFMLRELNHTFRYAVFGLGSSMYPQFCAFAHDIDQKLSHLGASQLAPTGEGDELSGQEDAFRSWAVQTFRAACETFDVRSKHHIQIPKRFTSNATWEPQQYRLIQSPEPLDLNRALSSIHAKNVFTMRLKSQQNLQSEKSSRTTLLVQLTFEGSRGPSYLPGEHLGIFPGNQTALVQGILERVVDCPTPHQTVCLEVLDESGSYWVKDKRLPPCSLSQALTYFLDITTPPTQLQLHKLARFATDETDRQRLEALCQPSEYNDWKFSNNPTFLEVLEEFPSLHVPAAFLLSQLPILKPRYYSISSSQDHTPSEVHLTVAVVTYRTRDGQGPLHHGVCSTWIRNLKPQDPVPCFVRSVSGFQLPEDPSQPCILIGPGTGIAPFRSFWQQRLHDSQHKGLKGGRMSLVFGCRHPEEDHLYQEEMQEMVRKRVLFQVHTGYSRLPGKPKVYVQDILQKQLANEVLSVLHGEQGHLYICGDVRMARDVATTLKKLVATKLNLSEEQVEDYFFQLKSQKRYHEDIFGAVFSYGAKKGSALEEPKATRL
Protocol: Microglial cell culture and measurements of mitric oxide (NO). The murine microglial cell line (BV2) was cultured, and the production of NO was measured by the methods as previously described (Wang, Y. H.; Wang, W. Y.; Chang, C. C.; Liou, K. T.; Sung, Y. J.; Liao, J. F.; Chen, C. F.; Chang, S.; Hou, Y. C.; Chou, Y. C.; Shen, Y. C. J. Biomed. Sci. 2006, 13, 127-141).

[3] = system: KB-VIN (multidrug-resistant strain); experiment: Cytotoxicity assay against KB-VIN cells in vitro; format: cell-based, human
NADPH oxidase (NOX) [4] = molecular target: NADPH oxidase (NOX) (Homo sapiens, UniProt P04839); format: cell-based; conditions: ROS production triggered with fMLP (2 μM), 1-50 μM test drug, peripheral human neutrophils; mean ± S.E.M.; read-out: IC50 (μM) in NOX fMLP-induced NOX activation in PMN
[5] = system: Hep2 (human laryngeal carcinoma); experiment: MTT cytotoxicity assay, Hep2; format: cell-based; conditions: Hep2 cell line
Protocol: (§1) Compounds II-7-II-9, II-13, II-14, II-20, II-21, II-25-II-33, and II-36 were assayed for cytotoxic activity against Doay (human medulloblastoma), Hep2 (human laryngeal carcinoma), MCF-7 (human breast adenocarcinoma), and Hela (human cervical epitheloid carcinoma) cell lines, using a MTT assay method.

[6] = system: Daoy (human medulloblastoma); experiment: MTT cytotoxicity assay, Daoy; format: cell-based; conditions: Daoy cell line
Protocol: as §1

[7] = system: MCF-7 (human breast adenocarcinoma); experiment: MTT cytotoxicity assay, MCF-7; format: cell-based; conditions: MCF-7 cell line
Protocol: as §1

[8] = system: Hela (human cervical epitheloid carcinoma); experiment: MTT cytotoxicity assay, Hela; format: cell-based; conditions: Hela cell line
Protocol: as §1

[9] = system: P-388 murine leukemia cells; conditions: in vitro, previous studies; cited from earlier work

Row | Molecule | EC50 (KB (human cancer cell)) | IC50 (NADPH oxidase (NOX) [1]) | IC50 [2] | EC50 [3] | IC50 (NADPH oxidase (NOX) [4]) | ED50 (μg/mL) Hep2 [5] | ED50 (μg/mL) Daoy [6] | ED50 (μg/mL) MCF-7 [7] | ED50 (μg/mL) Hela [8] | cytotoxicity against P-388 murine leukemia cells [9] | EC50 (μM) KB (KB (human cancer cell)) | EC50 (μM) KB-VIN [3]
1 | C=C(CC[C@@H](C)[C@H]1CC[C@H]2C3=C(C(=O)[C@H](O)[C@]12C)[C@@]1(C)CC[C@@H](O)[C@@H](C)[C@@H]1CC3=O)C(C)C(=O)O (stereo partly drawn) [Compound I-13, zhankuic acid C] | 15.5 µM | 40.3 ± 3.5 µM | 16.2 ± 0.9 µM | 6.4 µM | – | – | – | – | – | – | – | –
2 | C=C(CC[C@@H](C)[C@H]1CC[C@H]2C3=C(C(=O)C[C@]12C)[C@@]1(C)CCC(=O)[C@@H](C)[C@@H]1CC3)C(C)C(=O)O (stereo partly drawn) [Compound I-15, antcin A] | 4.9 µM | 45.9 ± 7.9 µM | 4.1 ± 0.5 µM | 10 µM | 29.2 ± 6.7 µM | — (ED50 > 20 μg/mL) | 13.2 µg/mL (≈ 29 µM) | 13.3 µg/mL (≈ 29.3 µM) | — (ED50 > 20 μg/mL) | – | – | –
3 | C=C(C)C#Cc1c(OC)cc(OC)c(OC)c1C [II-9, antrocamphin A] | – | 50.1 ± 3.3 µM | 7.2 ± 1 µM | – | 15.1 ± 4.1 µM | 10.5 µg/mL (≈ 42.6 µM) | 5.9 µg/mL (≈ 24 µM) | 3.4 µg/mL (≈ 13.8 µM) | 6.9 µg/mL (≈ 28 µM) | – | – | –
4 | C=C(CC[C@@H](C)[C@H]1CC[C@H]2C3=C(C(=O)C[C@]12C)[C@@]1(C)CCC(=O)[C@@H](C)[C@@H]1CC3=O)C(C)C(=O)O (stereo partly drawn) [zhankuic acid A] | – | – | – | – | – | – | – | – | – | significant cytotoxicity | – | –
5 | C=C(CC[C@@H](C)[C@H]1CC[C@H]2C3=C(C(=O)[C@H](O)[C@]12C)[C@@]1(C)CC[C@@H](O)[C@@H](C)[C@@H]1CC3=O)C(C)C(=O)O (stereo partly drawn) [zhankuic acid C] | – | – | – | – | – | – | – | – | – | significant cytotoxicity | – | –
6 | methyl antcinate H [Compound I-18] | – | 16 ± 8.1 µM | 2.5 µM | – | 18.1 ± 5.9 µM | – | – | – | – | – | NA@20 | NA@20
